Data on 3 molecules can be found in ChEMBL document CHEMBL1142372, “Design, synthesis, and structure-activity relationship studies of 4-quinolinyl- and 9-acrydinylhydrazones as potent antimalarial agents” (J Med Chem, 2008).

SMILES strings stand for the structures. Activity calls are given as the source filed them. The calls are words filed in the database; no cut-off is given here.

The subject of test [1] is Plasmodium berghei. Briefly: Antimalarial activity against Plasmodium berghei ANKA infected BALB/c mice (Mus musculus) as reduced parasitaemia at 30 mg/kg intraperitoneal dose after 4 days. The format is functional. More on the design: scale not given: the % may be the effect or the level left.
The subject of test [2] is Mus musculus. Briefly: Survival of Plasmodium Berghei ANKA infected BALB/c mice (Mus musculus) at 30 mg/kg, intraperitoneally. The arrangement: dose 30 mg/kg. The format is functional, organism-based.
Test [3] deals with Plasmodium falciparum. Briefly: Antiplasmodial activity against chloroquine-resistant Plasmodium falciparum K1 by [3H]hypoxanthine incorporation. The format is functional, organism-based.
For test [4], the system named is Plasmodium falciparum. Briefly: Antiplasmodial activity against chloroquine-sensitive Plasmodium falciparum 3D7 by [3H]hypoxanthine incorporation. The format is functional, organism-based.
Test [5] deals with Plasmodium falciparum. Kind of test: Antiplasmodial activity against chloroquine-sensitive Plasmodium falciparum D10 by [3H]hypoxanthine incorporation. The format is functional, organism-based.
Test [6] has as its system Plasmodium falciparum. Briefly: Antiplasmodial activity against chloroquine-resistant Plasmodium falciparum W2 by [3H]hypoxanthine incorporation. The format is functional, organism-based.
The test system of a further test is KB. Briefly: Cytotoxicity against human KB cells. The format is functional. Particulars: read-out: ED50 (the source's name).
For test [7], the target named is T1, Histidine-rich protein PFHRP-II (Plasmodium falciparum) (UniProt P05227).
T1 sequence (whole entry): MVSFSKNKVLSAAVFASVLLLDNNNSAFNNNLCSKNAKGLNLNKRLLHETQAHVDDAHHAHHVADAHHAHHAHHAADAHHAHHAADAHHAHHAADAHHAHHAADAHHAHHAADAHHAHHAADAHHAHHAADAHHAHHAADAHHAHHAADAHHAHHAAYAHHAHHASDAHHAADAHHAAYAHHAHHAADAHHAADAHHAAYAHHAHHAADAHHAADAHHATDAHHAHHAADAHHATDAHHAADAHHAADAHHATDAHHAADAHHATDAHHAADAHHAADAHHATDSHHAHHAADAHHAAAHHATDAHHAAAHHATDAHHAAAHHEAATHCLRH
Kind of test: Inhibition of beta-hematin formation by BHIA. The format is functional.

The subject of test [8] is Mus musculus. Briefly: Survival of Plasmodium Berghei ANKA infected BALB/c mice (Mus musculus) at 10 mg/kg, intraperitoneally. The format is functional, organism-based. The arrangement: dose 10 mg/kg.
The test system of test [9] is Plasmodium berghei. Briefly: Reduced parasitemia in Plasmodium berghei ANKA infected BALB/c mice (Mus musculus) at 10 mg/kg intraperitoneal dose after 4 days. The format is functional. The arrangement: scale not given: the % may be the effect or the level left.

`Oc1cc(/C=N/Nc2ccnc3cc(Cl)ccc23)ccc1CN1CCCC1` displayed an Activity in the test with Plasmodium berghei [1] of 71%. Moreover, the result in the test with Mus musculus [2] was Active. Besides, the IC50 – broadly, the point on the concentration scale where inhibition reaches its midpoint – in the test on Plasmodium falciparum [3] was found to be 0.0396 µM; in the test on Plasmodium falciparum [4] it was 0.0009 µM; in the test on Plasmodium falciparum [5] it was 0.0214 µM; in the test with Plasmodium falciparum [6], 0.0189 µM. Besides, in the test on KB, the EC50 was 152 µM.

On to `Clc1ccc2c(N/N=C/c3ccc(CN4CCCC4)cc3)ccnc2c1`, for which the Activity was 83% in the test on Plasmodium berghei [1] and “Dose-dependent effect” in test [7]. For the same molecule, the outcome in the test with Mus musculus [2] was Active. Besides, the EC50 in the test with KB was 19.5 µM.

Take `CCN(CC)CCCC(C)Nc1ccnc2cc(Cl)ccc12` (stereo not given) [CHLOROQUINE]: the outcome in the test with Mus musculus [8] was Active. Besides, the figures for the Activity result (in test [7]; in the test with Plasmodium berghei [9]) were “Dose-dependent effect” and 98%, respectively. The EC50 with KB was 260 µM.
